Measurements taken from the supplement of paper PMC8960247.
± gives the standard error.

How the values were obtained:
621-102 (TSC2-deficient) = assay: relative viability vs DMSO; higher = less cytotoxic; settings: serum: 10% FBS, 72 h
621-103 (TSC2-rescued) = assay: as above; settings: serum: 10% FBS, 72 h
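Further: immortalized renal angiomyolipoma cells stably carrying empty vector or TSC2, dosed in 384-well plates in DMEM, viability normalized to vehicle-treated wells within each plate.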

Row | SMILES | relative viability (621-102 (TSC2-deficient); 0.0001 µM) [%] | relative viability (621-102 (TSC2-deficient); 0.001 µM) [%] | relative viability (621-102 (TSC2-deficient); 0.01 µM) [%] | relative viability (621-102 (TSC2-deficient); 0.1 µM) [%] | relative viability (621-102 (TSC2-deficient); 1 µM) [%] | relative viability (621-102 (TSC2-deficient); 10 µM) [%] | relative viability (621-103 (TSC2-rescued); 0.0001 µM) [%] | relative viability (621-103 (TSC2-rescued); 0.001 µM) [%] | relative viability (621-103 (TSC2-rescued); 0.01 µM) [%] | relative viability (621-103 (TSC2-rescued); 0.1 µM) [%] | relative viability (621-103 (TSC2-rescued); 1 µM) [%] | relative viability (621-103 (TSC2-rescued); 10 µM) [%]
1 | CC1=NN(c2ccc(C)c(C)c2)C(=O)/C1=N\Nc1cccc(-c2cccc(C(=O)O)c2)c1O | 106.5 ± 0.35 | 104 ± 3.9 | 98.5 ± 2.5 | 108.4 ± 0.85 | 100.7 ± 0.44 | 83.7 ± 3.2 | 99.1 ± 1.1 | 103 ± 3.9 | 100.9 ± 0.81 | 99.8 ± 1 | 106.9 ± 0.69 | 90.7 ± 4
2 | COc1cc2c(cc1O)CC[C@@H]1[C@@H]2CC[C@]2(C)[C@@H](O)CC[C@@H]12 [2-Methoxyestradiol] | 121 ± 1.9 | 118 ± 3.8 | 112 ± 2.2 | 107 ± 3.3 | 80 ± 2.5 | 39.8 ± 1.9 | 107 ± 2.6 | 103.2 ± 0.73 | 98.66 ± 0.82 | 98.8 ± 2 | 82.5 ± 3.2 | 53.7 ± 0.91
3 | C=CCNC1=C2C[C@@H](C)C[C@H](OC)[C@H](O)[C@@H](C)/C=C(\C)[C@H](OC(N)=O)[C@@H](OC)/C=C\C=C(/C)C(=O)NC(=CC1=O)C2=O [17-AAG (Geldanamycin)] | 105 ± 1.4 | 100.9 ± 0.99 | 72.2 ± 2.9 | 25.7 ± 0.57 | 23.2 ± 0.81 | 25.3 ± 0.31 | 104.5 ± 0.96 | 104 ± 3 | 72.4 ± 3.8 | 14.3 ± 0.16 | 6.05 ± 0.096 | 6.31 ± 0.22
4 | CO[C@H]1/C=C\C=C(/C)C(=O)NC2=CC(=O)C(NCCN(C)C)=C(C[C@@H](C)C[C@H](OC)[C@H](O)[C@@H](C)/C=C(\C)[C@@H]1OC(N)=O)C2=O [17-DMAG] | 76.2 ± 3.6 | 58 ± 3.6 | 28.6 ± 0.72 | 21.7 ± 0.8 | 26.3 ± 0.3 | 16.31 ± 0.12 | 90.6 ± 3 | 41 ± 1.2 | 5.591 ± 0.017 | 5.287 ± 0.051 | 6.16 ± 0.36 | 3.07 ± 0.31
5 | CC1(C)CCC(c2ccc(Cl)cc2)=C(CN2CCN(c3ccc(C(=O)NS(=O)(=O)c4ccc(N[C@H](CCN5CCOCC5)CSc5ccccc5)c(S(=O)(=O)C(F)(F)F)c4)cc3)CC2)C1 [ABT-263 (Navitoclax)] | 114 ± 3.6 | 123 ± 7.2 | 116 ± 4.2 | 104 ± 3.3 | 118.5 ± 0.83 | 68.4 ± 0.82 | 100.9 ± 0.9 | 98.3 ± 2.4 | 98 ± 1.2 | 98.6 ± 2 | 97.65 ± 0.41 | 55.33 ± 0.17
6 | COc1ccc(S(=O)(=O)Nc2cccnc2Nc2ccc(O)cc2)cc1 [ABT-751] | 112 ± 3.7 | 114 ± 3.9 | 111 ± 1.8 | 110 ± 5.1 | 44.8 ± 1.6 | 49.55 ± 0.36 | 108 ± 3.8 | 108 ± 2.6 | 105 ± 3.2 | 98 ± 1.5 | 44.2 ± 2.2 | 44.8 ± 0.75
7 | Cc1ccc(F)c(NC(=O)Nc2ccc(-c3cccc4[nH]nc(N)c34)cc2)c1 [ABT-869] | 106 ± 3 | 100.3 ± 0.6 | 108 ± 1.6 | 108 ± 5.5 | 107 ± 2.2 | 86 ± 1.5 | 97.84 ± 0.17 | 100 ± 1.3 | 108 ± 6.2 | 107 ± 3.4 | 109.7 ± 0.82 | 80.4 ± 3.2
8 | C[C@]1(c2nc3c(C(N)=O)cccc3[nH]2)CCCN1 [ABT-888] | 129 ± 4.1 | 118 ± 1.3 | 124.3 ± 1.1 | 120 ± 1.6 | 122 ± 2.6 | 104 ± 3.6 | 104.8 ± 1 | 103.4 ± 0.84 | 104 ± 0.11 | 104.7 ± 0.51 | 105 ± 1.5 | 103 ± 1.3
9 | CC(C)(C)c1cc(NC(=O)Nc2ccc(-c3cn4c(n3)sc3cc(OCCN5CCOCC5)ccc34)cc2)no1 [AC-220] | 81.8 ± 3.2 | 84.77 ± 0.0088 | 87.3 ± 3.6 | 84.9 ± 5.7 | 70.1 ± 1.2 | 53.1 ± 3 | 96.29 ± 0.69 | 98 ± 1.9 | 99.4 ± 2.7 | 97.8 ± 2.8 | 76.5 ± 4.7 | 44.7 ± 1.2
10 | N#C/C(=C\c1ccc(O)c(O)c1)C(=O)NCc1ccccc1 [AG-490] | 99.7 ± 2.8 | 98.6 ± 3.6 | 92.6 ± 2.9 | 104 ± 2.4 | 99.2 ± 6.6 | 81 ± 1.6 | 109 ± 1.2 | 109 ± 3.9 | 108 ± 2 | 114 ± 1.2 | 107 ± 1 | 83.8 ± 3.9
11 | Cc1csc(-c2nnc(Nc3ccc(Oc4ncccc4-c4ccnc(N)n4)cc3)c3ccccc23)c1 [AMG900] | 84.8 ± 2 | 74.8 ± 1.5 | 75.4 ± 0.76 | 83.24 ± 0.43 | 78.91 ± 0.56 | 76 ± 2.4 | 88.9 ± 4.5 | 77.64 ± 0.67 | 71.5 ± 4.7 | 77.7 ± 1.1 | 65.8 ± 2.5 | 73.6 ± 1.5
12 | CC(C)[C@H](C(=O)Nc1ccc(C(=O)NO)cc1)c1ccccc1 [AR-42 (HDAC-42)] | 94.68 ± 0.44 | 109 ± 2.2 | 90.8 ± 3.5 | 82.4 ± 0.9 | 61.7 ± 2.2 | 41 ± 1.6 | 109 ± 2 | 98.16 ± 0.28 | 102 ± 6.3 | 83.4 ± 3.6 | 41.07 ± 0.079 | 3.41 ± 0.081
13 | Clc1ccc(C2(c3ccc(-c4cn[nH]c4)cc3)CCNCC2)cc1 [AT7867] | 98.8 ± 5.5 | 102 ± 6.2 | 105 ± 4.8 | 95.8 ± 1.7 | 85.23 ± 0.13 | 49.2 ± 3.2 | 89.1 ± 5.1 | 90.1 ± 2.4 | 90.2 ± 4.9 | 94.3 ± 6.7 | 75.1 ± 5.7 | 18.5 ± 2.6
14 | COc1cc2nccc(Oc3ccc(NC(=O)Nc4cc(C)on4)c(Cl)c3)c2cc1OC [AV-951(Tivozanib)] | 102 ± 2 | 96.6 ± 3.2 | 110 ± 5.9 | 111 ± 2 | 107 ± 2.7 | 77.33 ± 0.38 | 101.2 ± 0.14 | 104 ± 1.3 | 102.2 ± 0.42 | 99.26 ± 0.52 | 102 ± 2.4 | 48.2 ± 1.3
15 | Cc1cc(Nc2nc(N[C@@H](C)c3ccc(F)cc3)c(C#N)cc2F)n[nH]1 [AZ 960] | 99.6 ± 4 | 107 ± 3.6 | 103 ± 4.5 | 104 ± 2.7 | 47.1 ± 3.6 | 44.9 ± 4.3 | 99.9 ± 3.1 | 101 ± 1.2 | 94.7 ± 2.2 | 92.44 ± 0.84 | 62.82 ± 0.16 | 16.3 ± 0.85
